Test results published in ChEMBL document CHEMBL1138996, “Biological evaluation of isothiazoloquinolones containing aromatic heterocycles at the 7-position: In vitro activity of a series of potent antibacterial agents that are effective against methicillin-resistant Staphylococcus aureus” (Bioorg Med Chem Lett, 2006).
Values after ≈ are worked out from the molar mass of the structure shown.

What was measured:
Staphylococcus aureus [1] = experiment: Antibacterial activity against Staphylococcus aureus ATCC 29213; format: functional
HEp-2 = experiment: Cytotoxicity against Hep2 cell line; format: functional; conditions: Homo sapiens
[2] = target: DNA topoisomerase 4 subunit A (Staphylococcus aureus, UniProt P0C1U9); experiment: Inhibitory activity against Staphylococcus aureus ATCC 29213 wild type Topo 4
Sequence of DNA topoisomerase 4 subunit A (P0C1U9 whole entry): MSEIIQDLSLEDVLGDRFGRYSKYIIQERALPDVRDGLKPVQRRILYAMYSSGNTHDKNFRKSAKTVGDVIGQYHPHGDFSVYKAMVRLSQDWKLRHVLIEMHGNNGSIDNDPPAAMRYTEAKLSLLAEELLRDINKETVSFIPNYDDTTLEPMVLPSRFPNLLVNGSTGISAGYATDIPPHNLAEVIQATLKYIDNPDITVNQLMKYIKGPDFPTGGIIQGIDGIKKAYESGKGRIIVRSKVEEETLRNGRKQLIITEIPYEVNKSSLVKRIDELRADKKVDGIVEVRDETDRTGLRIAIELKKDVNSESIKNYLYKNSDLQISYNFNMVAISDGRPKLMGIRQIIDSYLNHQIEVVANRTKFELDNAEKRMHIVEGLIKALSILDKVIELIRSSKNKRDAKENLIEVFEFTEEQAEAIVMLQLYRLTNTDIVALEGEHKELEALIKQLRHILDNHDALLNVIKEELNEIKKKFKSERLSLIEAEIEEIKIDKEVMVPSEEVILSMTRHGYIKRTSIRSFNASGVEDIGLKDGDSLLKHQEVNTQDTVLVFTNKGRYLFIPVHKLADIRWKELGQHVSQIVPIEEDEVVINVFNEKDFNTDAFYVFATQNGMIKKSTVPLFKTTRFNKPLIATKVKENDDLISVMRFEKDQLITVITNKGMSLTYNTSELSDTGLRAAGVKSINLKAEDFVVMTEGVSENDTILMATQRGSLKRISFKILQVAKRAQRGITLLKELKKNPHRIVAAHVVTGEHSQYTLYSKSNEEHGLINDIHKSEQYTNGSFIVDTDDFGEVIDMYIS

Staphylococcus aureus [3] = experiment: Antibacterial activity against methicillin-resistant Staphylococcus aureus ATCC 700699; format: functional
Escherichia coli = experiment: Antibacterial activity against Escherichia coli ATCC 25922; format: functional
Salmonella typhimurium = experiment: Antibacterial activity against Salmonella Typhimurium ATCC 14028; format: functional, Salmonella enterica subsp. enterica serovar Typhimurium; conditions: Salmonella enterica
Streptococcus pyogenes = experiment: Antibacterial activity against Streptococcus pyogenes ATCC 19615; format: functional
Pseudomonas aeruginosa = experiment: Antibacterial activity against Pseudomonas aeruginosa ATCC 27853; format: functional
Klebsiella pneumoniae = experiment: Antibacterial activity against Klebsiella pneumoniae ATCC 13883; format: functional
[4] = test system: Stenotrophomonas maltophilia; experiment: Antibacterial activity against Stenotrophomonas maltophilia ATCC 13637; format: functional
Streptococcus pneumoniae = experiment: Antibacterial activity against Streptococcus pneumoniae ATCC 49619; format: functional
Moraxella catarrhalis = experiment: Antibacterial activity against Moraxella catarrhalis ATCC 8176; format: functional
Enterococcus faecalis = experiment: Antibacterial activity against Enterococcus faecalis ATCC 29212; format: functional
Haemophilus influenzae = experiment: Antibacterial activity against Haemophilus influenzae type b ACH-0056; format: functional
Enterococcus faecium = experiment: Antibacterial activity against Enterococcus faecium ATCC 49032; format: functional

O=c1[nH]sc2c1c(=O)c1cc(F)c(-c3cnccn3)cc1n2C1CC1
MIC (Staphylococcus aureus [1]): 0.12 µg/mL (≈ 0.339 µM) | CC50 (HEp-2): > 91 µM | IC50 [2]: 64 µM | MIC (Staphylococcus aureus [3]): > 64 µg/mL | MIC (Escherichia coli): 1 µg/mL (≈ 2.82 µM)

O=c1[nH]sc2c1c(=O)c1cc(F)c(-c3ccc4cnccc4c3)cc1n2C1CC1
MIC (Staphylococcus aureus [1]): 0.002 µg/mL (≈ 0.00496 µM) | CC50 (HEp-2): 22 µM | IC50 [2]: 3.6 µM | MIC (Staphylococcus aureus [3]): 0.5 µg/mL (≈ 1.24 µM) | MIC (Escherichia coli): 0.13 µg/mL (≈ 0.322 µM)

Cc1cc(-c2cc3c(cc2F)c(=O)c2c(=O)[nH]sc2n3C2CC2)ccn1
MIC (Salmonella typhimurium): 0.125 µg/mL (≈ 0.34 µM) | MIC (Streptococcus pyogenes): 0.04 µg/mL (≈ 0.109 µM) | MIC (Pseudomonas aeruginosa): 2 µg/mL (≈ 5.44 µM) | MIC (Klebsiella pneumoniae): 0.125 µg/mL (≈ 0.34 µM) | MIC [4]: 1 µg/mL (≈ 2.72 µM) | MIC (Streptococcus pneumoniae): 0.029 µg/mL (≈ 0.0789 µM) | MIC (Staphylococcus aureus [1]): 0.004 µg/mL (≈ 0.0109 µM) | MIC (Moraxella catarrhalis): 0.0037 µg/mL (≈ 0.0101 µM) | CC50 (HEp-2): 36 µM | IC50 [2]: 26 µM | MIC (Enterococcus faecalis): 0.125 µg/mL (≈ 0.34 µM) | MIC (Haemophilus influenzae): 0.015 µg/mL (≈ 0.0408 µM) | MIC (Staphylococcus aureus [3]): 0.5 µg/mL (≈ 1.36 µM) | MIC (Enterococcus faecium): 0.25 µg/mL (≈ 0.68 µM) | MIC (Escherichia coli): 0.059 µg/mL (≈ 0.161 µM)

O=c1[nH]sc2c1c(=O)c1cc(F)c(-c3cncc(C4CCCN4)c3)cc1n2C1CC1 (centres undefined)
MIC (Staphylococcus aureus [1]): 0.06 µg/mL (≈ 0.142 µM) | CC50 (HEp-2): 25 µM | IC50 [2]: 1.1 µM | MIC (Staphylococcus aureus [3]): 8 µg/mL (≈ 18.9 µM) | MIC (Escherichia coli): 0.12 µg/mL (≈ 0.284 µM)

O=c1[nH]sc2c1c(=O)c1cc(F)c(-c3cccnc3)cc1n2C1CC1
MIC (Staphylococcus aureus [1]): 0.0071 µg/mL (≈ 0.0201 µM) | CC50 (HEp-2): > 100 µM | IC50 [2]: 0.5 µM | MIC (Staphylococcus aureus [3]): 2 µg/mL (≈ 5.66 µM) | MIC (Escherichia coli): 0.0035 µg/mL (≈ 0.0099 µM)

O=c1[nH]sc2c1c(=O)c1cc(F)c(-c3ccc[nH]3)cc1n2C1CC1
MIC (Staphylococcus aureus [1]): 0.06 µg/mL (≈ 0.176 µM) | CC50 (HEp-2): 23 µM | IC50 [2]: 9.9 µM | MIC (Staphylococcus aureus [3]): 16 µg/mL (≈ 46.9 µM) | MIC (Escherichia coli): 1 µg/mL (≈ 2.93 µM)

COc1ccncc1-c1cc2c(cc1F)c(=O)c1c(=O)[nH]sc1n2C1CC1
MIC (Staphylococcus aureus [1]): 0.023 µg/mL (≈ 0.06 µM) | CC50 (HEp-2): 50 µM | IC50 [2]: 10 µM | MIC (Staphylococcus aureus [3]): 4 µg/mL (≈ 10.4 µM) | MIC (Escherichia coli): 0.25 µg/mL (≈ 0.652 µM)

COc1ncc(-c2cc3c(cc2F)c(=O)c2c(=O)[nH]sc2n3C2CC2)cn1
MIC (Staphylococcus aureus [1]): 0.015 µg/mL (≈ 0.039 µM) | CC50 (HEp-2): 43 µM | IC50 [2]: 3.3 µM | MIC (Staphylococcus aureus [3]): 8 µg/mL (≈ 20.8 µM) | MIC (Escherichia coli): 0.13 µg/mL (≈ 0.338 µM)

O=c1[nH]sc2c1c(=O)c1cc(F)c(-c3cncc4ccccc34)cc1n2C1CC1
MIC (Staphylococcus aureus [1]): 0.028 µg/mL (≈ 0.0694 µM) | CC50 (HEp-2): 51 µM | IC50 [2]: > 38 µM | MIC (Staphylococcus aureus [3]): 8 µg/mL (≈ 19.8 µM) | MIC (Escherichia coli): 0.48 µg/mL (≈ 1.19 µM)

O=c1[nH]sc2c1c(=O)c1cc(F)c(-c3ccc(F)nc3)cc1n2C1CC1
MIC (Salmonella typhimurium): 0.125 µg/mL (≈ 0.337 µM) | MIC (Streptococcus pyogenes): 0.059 µg/mL (≈ 0.159 µM) | MIC (Pseudomonas aeruginosa): 0.5 µg/mL (≈ 1.35 µM) | MIC (Klebsiella pneumoniae): 0.125 µg/mL (≈ 0.337 µM) | MIC [4]: 1 µg/mL (≈ 2.69 µM) | MIC (Streptococcus pneumoniae): 0.125 µg/mL (≈ 0.337 µM) | MIC (Staphylococcus aureus [1]): 0.015 µg/mL (≈ 0.0404 µM) | MIC (Moraxella catarrhalis): 0.0037 µg/mL (≈ 0.00996 µM) | CC50 (HEp-2): > 100 µM | IC50 [2]: 12 µM | MIC (Enterococcus faecalis): 0.125 µg/mL (≈ 0.337 µM) | MIC (Haemophilus influenzae): 0.03 µg/mL (≈ 0.0808 µM) | MIC (Staphylococcus aureus [3]): 2 µg/mL (≈ 5.39 µM) | MIC (Enterococcus faecium): 0.11 µg/mL (≈ 0.296 µM) | MIC (Escherichia coli): 0.03 µg/mL (≈ 0.0808 µM)

O=c1[nH]sc2c1c(=O)c1cc(F)c(-c3cccc4cccnc34)cc1n2C1CC1
MIC (Staphylococcus aureus [1]): 0.13 µg/mL (≈ 0.322 µM) | CC50 (HEp-2): 79 µM | IC50 [2]: > 40 µM | MIC (Staphylococcus aureus [3]): 16 µg/mL (≈ 39.7 µM) | MIC (Escherichia coli): 0.75 µg/mL (≈ 1.86 µM)

O=c1[nH]sc2c1c(=O)c1cc(F)c(-c3cnc4ccccc4c3)cc1n2C1CC1
MIC (Staphylococcus aureus [1]): 0.011 µg/mL (≈ 0.0273 µM) | CC50 (HEp-2): > 100 µM | IC50 [2]: 50 µM | MIC (Staphylococcus aureus [3]): 8 µg/mL (≈ 19.8 µM) | MIC (Escherichia coli): 0.13 µg/mL (≈ 0.322 µM)

Cn1ccc2cc(-c3cc4c(cc3F)c(=O)c3c(=O)[nH]sc3n4C3CC3)ccc21
MIC (Staphylococcus aureus [1]): 0.065 µg/mL (≈ 0.16 µM) | CC50 (HEp-2): > 100 µM | IC50 [2]: 3.6 µM | MIC (Staphylococcus aureus [3]): 8 µg/mL (≈ 19.7 µM) | MIC (Escherichia coli): 1 µg/mL (≈ 2.47 µM)

Cc1ccc(-c2cc3c(cc2F)c(=O)c2c(=O)[nH]sc2n3C2CC2)c(C)n1
MIC (Staphylococcus aureus [1]): 0.13 µg/mL (≈ 0.341 µM) | CC50 (HEp-2): > 100 µM | IC50 [2]: 8 µM | MIC (Staphylococcus aureus [3]): > 64 µg/mL | MIC (Escherichia coli): 0.5 µg/mL (≈ 1.31 µM)

O=c1[nH]sc2c1c(=O)c1cc(F)c(-c3cc4ccccc4[nH]3)cc1n2C1CC1
MIC (Staphylococcus aureus [1]): 0.06 µg/mL (≈ 0.153 µM) | CC50 (HEp-2): 9 µM | IC50 [2]: 3.3 µM | MIC (Staphylococcus aureus [3]): 4 µg/mL (≈ 10.2 µM) | MIC (Escherichia coli): 1 µg/mL (≈ 2.55 µM)

O=c1[nH]sc2c1c(=O)c1cc(F)c(-c3ccc(-n4cccc4)nc3)cc1n2C1CC1
MIC (Staphylococcus aureus [1]): 0.029 µg/mL (≈ 0.0693 µM) | CC50 (HEp-2): > 100 µM | IC50 [2]: 18 µM | MIC (Staphylococcus aureus [3]): 4 µg/mL (≈ 9.56 µM) | MIC (Escherichia coli): 1 µg/mL (≈ 2.39 µM)

O=c1[nH]sc2c1c(=O)c1cc(F)c(-c3cccnc3F)cc1n2C1CC1
MIC (Staphylococcus aureus [1]): 0.015 µg/mL (≈ 0.0404 µM) | CC50 (HEp-2): > 100 µM | IC50 [2]: 2.4 µM | MIC (Escherichia coli): 0.015 µg/mL (≈ 0.0404 µM)

O=c1[nH]sc2c1c(=O)c1cc(F)c(-c3ccnc(CO)c3)cc1n2C1CC1
MIC (Staphylococcus aureus [1]): 0.034 µg/mL (≈ 0.0887 µM) | CC50 (HEp-2): > 100 µM | IC50 [2]: 4.8 µM | MIC (Staphylococcus aureus [3]): 32 µg/mL (≈ 83.5 µM) | MIC (Escherichia coli): 0.14 µg/mL (≈ 0.365 µM)

NCc1ccc(-c2cc3c(cc2F)c(=O)c2c(=O)[nH]sc2n3C2CC2)cn1
MIC (Staphylococcus aureus [1]): 0.13 µg/mL (≈ 0.34 µM) | CC50 (HEp-2): > 100 µM | IC50 [2]: 0.7 µM | MIC (Staphylococcus aureus [3]): 32 µg/mL (≈ 83.7 µM) | MIC (Escherichia coli): 0.059 µg/mL (≈ 0.154 µM)

COc1cncc(-c2cc3c(cc2F)c(=O)c2c(=O)[nH]sc2n3C2CC2)c1
MIC (Staphylococcus aureus [1]): 0.03 µg/mL (≈ 0.0782 µM) | CC50 (HEp-2): 34 µM | IC50 [2]: 21 µM | MIC (Staphylococcus aureus [3]): 4 µg/mL (≈ 10.4 µM) | MIC (Escherichia coli): 0.061 µg/mL (≈ 0.159 µM)
